These results are taken from patent US20210244813A1, “ADJUVANT AND VACCINE COMPOSITIONS” (priority 2012, published 2021).

For this experiment, the system named is IL-4. Description: Relative IL-4 mRNA expression (real time RT-PCR) in cultured splenic lymphocytes of vaccinated mice. The format is cell-based. The following applies: vaccine treatment group; culture with LAP, LAP/QAC or OVA.

With OVA, the “IL-4 expression normalized to ARBP at 48 hours in culture” value is given as “Increased IL-4 expression was observed for some animals”.
